Like-named read-outs stand apart in the source and are kept apart here. Bridge positions count the residues as written; N and C are the ends. Square brackets hold non-standard residues; d marks the D form. Peptide text beside a SMILES is read from it. * marks the point of attachment. Heptanoyl(6-Me) = CC(C)CCCCC(=O)*; X1 = CC[C@H](C)CCCCC(=O)*; Dab = NCC[C@H](N)C(=O)O
Experiments:
[1] = Polymyxin B1 and B2 plasma levels in further patient samples; settings: human, in vivo, iv
[2] = human, in vivo
[3] = format: in vitro ADME; settings: human EDTA plasma QC samples

SMILES | Plasma concentration of the patient sample of Figure 1E/F [1] | half-life ([2]; female, iv) | level at 0 h ([2]; female, iv, 1.5 mg/kg) | level at 12 h ([2]; female, iv, 1.5 mg/kg) | Ratio of polymyxin B2 to polymyxin B1+polymyxin B2 in plasma, mean [2] | Ratio of polymyxin B2 to polymyxin B1+polymyxin B2 in plasma, range [2] | Cmax ([2]; female, iv, 1.5 mg/kg) | half-life ([2]; female, iv, 1.5 mg/kg) | Stability during repetitive freeze-thaw cycles [3] | Time stable at 4°C ([3]; 4°C) | Time stable at room temperature ([3]; 22°C) | Time stable at −80°C ([3]; −80°C)
CC(C)CCCCC(=O)N[C@@H](CCN)C(=O)N[C@H](C(=O)N[C@@H](CCN)C(=O)N[C@H]1CCNC(=O)[C@H]([C@@H](C)O)NC(=O)[C@H](CCN)NC(=O)[C@H](CCN)NC(=O)[C@H](CC(C)C)NC(=O)[C@@H](Cc2ccccc2)NC(=O)[C@H](CCN)NC1=O)[C@@H](C)O [polymyxin B2] ({Heptanoyl(6-Me)}-[Dab]T[Dab][Dab][Dab][dF]L[Dab][Dab]T; lactam 4-C) | 322 ng/mL | 5.4 h | 252 ng/mL | 214 ng/mL | 0.15 | 0.13-0.16 |  |  |  |  |  | 
CC[C@H](C)CCCCC(=O)N[C@@H](CCN)C(=O)N[C@H](C(=O)N[C@@H](CCN)C(=O)N[C@H]1CCNC(=O)[C@H]([C@@H](C)O)NC(=O)[C@H](CCN)NC(=O)[C@H](CCN)NC(=O)[C@H](CC(C)C)NC(=O)[C@@H](Cc2ccccc2)NC(=O)[C@H](CCN)NC1=O)[C@@H](C)O [polymyxin B1] (X1-[Dab]T[Dab][Dab][Dab][dF]L[Dab][Dab]T; lactam 4-C) |  |  | 1400 ng/mL | 1080 ng/mL |  |  | 4830 ng/mL | 4.7 h | at least three repetitive freeze-thaw cycles | at least 72 h | at least 24 h | at least 3 months
